For experiment [1], the system named is lambs with acute pulmonary hypertension. The following applies: cited from earlier work; for pulmonary vasodilation / effect on mean arterial pressure / transpulmonary cGMP release / systemic arterial oxygenation: inhaled microparticles, awake lambs, U-46619 infusion; for pulmonary vasodilation: mean pulmonary arterial pressure 35 mm Hg.
For experiment [2], the target named is T1, soluble guanylate cyclase (sGC) (Homo sapiens, UniProt Q02108+Q02153).
T1 construct: endogenously expressing soluble guanylate cyclase (sGC); endogenous in cells; host or cells: HEK293
T1 sequence (Q02153 1-619): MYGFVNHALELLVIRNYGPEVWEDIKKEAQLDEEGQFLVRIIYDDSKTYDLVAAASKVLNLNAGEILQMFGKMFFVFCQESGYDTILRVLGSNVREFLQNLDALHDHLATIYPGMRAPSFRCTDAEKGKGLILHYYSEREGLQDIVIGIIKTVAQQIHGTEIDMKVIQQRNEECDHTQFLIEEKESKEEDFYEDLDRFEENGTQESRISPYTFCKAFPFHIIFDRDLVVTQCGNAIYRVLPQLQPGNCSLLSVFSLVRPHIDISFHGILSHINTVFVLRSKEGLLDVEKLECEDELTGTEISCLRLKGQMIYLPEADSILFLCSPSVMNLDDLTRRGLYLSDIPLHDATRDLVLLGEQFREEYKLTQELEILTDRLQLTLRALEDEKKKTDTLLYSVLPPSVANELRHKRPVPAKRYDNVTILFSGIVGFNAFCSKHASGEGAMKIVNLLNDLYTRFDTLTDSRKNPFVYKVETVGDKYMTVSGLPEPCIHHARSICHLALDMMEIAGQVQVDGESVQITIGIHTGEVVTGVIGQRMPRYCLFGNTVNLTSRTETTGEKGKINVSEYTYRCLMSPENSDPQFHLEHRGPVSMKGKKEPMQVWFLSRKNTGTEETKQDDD
T1 sequence (Q02108 1-690): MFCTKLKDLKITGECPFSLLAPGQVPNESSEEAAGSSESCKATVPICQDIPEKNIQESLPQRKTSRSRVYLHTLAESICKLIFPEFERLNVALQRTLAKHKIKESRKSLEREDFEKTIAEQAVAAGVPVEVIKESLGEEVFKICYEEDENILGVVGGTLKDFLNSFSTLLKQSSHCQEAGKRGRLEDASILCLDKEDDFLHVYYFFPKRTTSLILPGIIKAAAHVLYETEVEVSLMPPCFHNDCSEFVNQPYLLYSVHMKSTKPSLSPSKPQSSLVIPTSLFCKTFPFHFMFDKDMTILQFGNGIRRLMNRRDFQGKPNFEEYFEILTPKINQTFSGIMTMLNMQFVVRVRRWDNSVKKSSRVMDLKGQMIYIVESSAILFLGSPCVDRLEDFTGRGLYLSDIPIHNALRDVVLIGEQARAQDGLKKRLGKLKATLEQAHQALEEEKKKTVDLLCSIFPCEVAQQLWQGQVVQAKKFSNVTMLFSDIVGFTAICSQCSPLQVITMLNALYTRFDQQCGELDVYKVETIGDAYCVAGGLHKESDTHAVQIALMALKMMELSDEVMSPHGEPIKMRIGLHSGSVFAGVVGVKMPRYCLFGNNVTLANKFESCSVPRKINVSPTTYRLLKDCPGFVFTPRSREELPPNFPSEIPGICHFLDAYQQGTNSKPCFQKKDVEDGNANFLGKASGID
The experiment in a line: sGC-HEK-cGMP assay (run with SNP incubation). It is filed as cell-based. The following applies: for Emax: Table 3A, 10 μM SNP, 100% = 30 μM BAY 41-2272 with 10 μM SNP, read-out: HEK assay Emax-unconstrained (Percent); for HEK MEC-10: concentration that would elicit 10% of the Emax in the presence of 10 μM SNP; for HEK MEC-10 / pEC50: Table 3D; for pEC50: in the presence of 10 μM SNP. In short, it runs like this:
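HEK293 cells with endogenous sGC were pre-treated 15 min at 37 °C with 0.5 mM IBMX, then exposed to test compound plus sodium nitroprusside for 10 min at 37 °C. Cells were lysed in 0.1 M HCl (4 °C, 30 min), and cGMP was quantified by LC/MS against a standard curve. EC50 values came from concentration-response curves.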

The next experiment has as its system Thoracic aortic rings. Nature of the experiment: Alternative thoracic aortic rings assay (Example 5; original resting tension as 100% inhibition). The following applies: rat thoracic aortic rings contracted with phenylephrine; for Aortic Ring Percent Relaxation at 1 μM: compound at 1 μM; for Aortic Ring Percent Relaxation at 3 μM: compound at 3 μM; for Aortic Ring Percent Relaxation at 10 μM: compound at 10 μM; for pEC50: read-out: Aortic Ring EC50. As for the experimental part: Thoracic aortic rings were dissected from anesthetized (isoflurane) male Sprague-Dawley rats weighing 275-299 g. Tissues were immediately transferred to ice-cold Krebs-Henseleit solution, which had been aerated with 95% 02 and 5% CO2 for 30 minutes. Following removal of connective tissue, aortic sections were cut into 4 rings (˜2 mm each) and suspended on 2 L-shaped hooks, with one hook fixed at the bottom of the tissue bath (Schuler Organ Bath, Harvard Apparatus) and the other connected to a force transducer (F30 Force Transducer, Harvard Apparatus). Baths contained Krebs Henseleit solution (10 mL) heated to 37° C. and aerated with 95% 02 and 5% CO2. Rings were brought to an initial tension of 0.3-0.5 g and gradually raised to a resting tension of 1.0 g over 60 minutes. Rings were rinsed with Krebs Henseleit solution (heated to 37° C. and aerated with 95% 02 and 5% CO2) at 15 minute intervals until a stable baseline was obtained. Rings were considered to be stable after a resting tension of 1.0 g was maintained (for approximately 10 minutes) without need for adjustment. Rings were then contracted with 100 ng/mL phenylephrine by adding 100 μL of a 10 μg/mL phenylephrine stock solution. Tissues achieving a stable contraction were then treated in a cumulative, dose dependent manner with test compounds prepared in dimethylsulfoxide (DMSO). In some cases, tissues were rinsed three times over a 5 minute period with Krebs-Heinseleit's solution (heated to 37° C. and aerated with 95% 02 and 5% CO2), allowed to stabilize at baseline, and then used for characterization of other test articles or DMSO effects. All data were collected using the HSE-ACAD software provided by Harvard Apparatus. […] EC50 values were calculated from concentration-response curves generated with GraphPad Prism Software.
Biological Activity Measurement by the Thoracic Aortic Rings Assay
The biological data for some of a compound of Table I, in comparison with the known compound, BAY 41-2272, as the reference compound, determined by the thoracic aorta ring assay of Example 5 are presented in Table 6 below.

For experiment [3], the system named is Guinea pig tracheal smooth muscle (GPTSM). Nature of the experiment: Electrical field stimulated guinea pig tracheal smooth muscle in vitro (ex vivo) model of bronchodilation. The following applies: Cavia porcellus; guinea pig tracheal strips, sub-maximal EFS; 95% CI 0.78-0.94; read-out: IC50, inhibition of EFS-induced tracheal smooth muscle contraction. From the text:
Electrical Field Stimulated Guinea Pig Tracheal Smooth Muscle In Vitro (Ex Vivo) Model for the Assessment of Bronchodilation.
It is possible to assess the bronchodilating effects of sGC stimulators by using the system described below. This system allowed us to determine potency, efficacy and duration of action of several sGC stimulators, as well as to assess potential side effects such as blood pressure, or heart rate changes. […]
On each experimental day, a guinea pig was killed by exposure to a rising concentration of CO2 and the trachea removed. […] Tissues were washed with Kreb's buffer and stimulated using the previously determined sub-maximal voltage for 1 hour to establish a stable baseline contraction prior to assessment of compound activity.
A cumulative dose response curve (DRC) to each test substance was then performed and changes in smooth muscle contraction measured. The effect of each test substance in each experiment was expressed as a percentage inhibition of the baseline contraction, normalized to the relevant vehicle controls. […] The data from all three experiments was pooled, the DRC plotted, and the test substance potency and efficacy determined.

[4] abbreviates: top of concentration-response curve not fitted to 100%.
Where [5] appears, read: top of concentration-response curve not fitted to 100%, read-out: HEK assay EC50-unconstrained.

pEC50, pIC50: −log10 of the molar value. Where two headings read alike, the source gives them in different places. Bounds are passed on as bounds.

`Nc1nc(-c2nn(Cc3ccccc3F)c3ncccc23)ncc1C1CC1` [BAY 41-2272]: in experiment [1], the pulmonary vasodilation result is reported as “dose dependent pulmonary vasodilation”, the “effect on mean arterial pressure” value is on record as “without significant effect on mean arterial pressure” and the “transpulmonary cGMP release” value was “increased transpulmonary cGMP release”.
As for `Nc1nc(-c2nn(Cc3ccccc3F)c3ncccc23)nc(N)c1N1CCOCC1` [BAY 41-8543], the “magnitude and duration of pulmonary vasodilation induced by iNO” value in experiment [1] (after inhaling the microparticles, lambs) is “augmented”. Further, in experiment [1], the pulmonary vasodilation entry is “dose dependent pulmonary vasodilation”, the “effect on mean arterial pressure” value is recorded as “without significant effect on mean arterial pressure”, the systemic arterial oxygenation entry is “increased systemic arterial oxygenation” and the “transpulmonary cGMP release” value is reported as “increased transpulmonary cGMP release”.
As for `O=C(O)CCCCN(CCc1ccccc1OCc1ccc(CCc2ccccc2)cc1)Cc1ccc(C(=O)O)cc1` [BAY 58-2667], the “pulmonary vasodilation and transpulmonary cGMP release after treatment with ODQ” value in experiment [1] (inhaled microparticles after intravenous ODQ, lambs) is “greatly enhanced”. For the same molecule, in experiment [1], the pulmonary vasodilation result is “dose dependent pulmonary vasodilation”, the “effect on mean arterial pressure” value was “without significant effect on mean arterial pressure”, the systemic arterial oxygenation entry is given as “increased systemic arterial oxygenation” and the “transpulmonary cGMP release” value is “increased transpulmonary cGMP release”.
Usually Emax stands for the greatest response seen or fitted, relative to the assay's reference. The pEC50 is the EC50 on a negative log10 scale, so that one unit is a factor of ten. Take `Oc1nc(-c2cc(-c3ccon3)n(Cc3cccc(F)c3F)n2)ncc1F` [Compound 1]: the Emax in experiment [2] (setting [4]) lay in the range of 60 to 80%. The “HEK MEC-10” value in experiment [2] is “B (0.01 to <0.1 μM)”. Further, the negative-log EC50 (pEC50) in experiment [2] (read-out: HEK assay EC50) was over 4.70. The negative logarithm of the EC50 (pEC50) in experiment [2] (setting [5]) was 6.30 to 8.00. Besides, in the experiment with Thoracic aortic rings, the “Aortic Ring Percent Relaxation at 1 μM” value is listed as “F (80 to <100%)”, the “Aortic Ring Percent Relaxation at 3 μM” value is “G (100 to <120%)”, the “Aortic Ring Percent Relaxation at 10 μM” value was “G (100 to <120%)” and the negative logarithm of the EC50 (pEC50) is over 5.70.
Take `CC1(C(=O)Nc2cnc(-c3cc(-c4ccon4)n(Cc4cccc(F)c4F)n3)nc2N)CC1` [Compound 10]: in experiment [2] (setting [4]), the Emax is 100 to 120%. In addition, the “HEK MEC-10” value in experiment [2] is “A (0.001 to <0.01 μM)”. Also, the pEC50 in experiment [2] (read-out: HEK assay EC50) was over 4.70. For the same molecule, in experiment [2] (setting [5]), the pEC50 is 6.30 to 8.00. Further, in the experiment with Thoracic aortic rings, the “Aortic Ring Percent Relaxation at 1 μM” value is given as “G (100 to <120%)”, the “Aortic Ring Percent Relaxation at 3 μM” value is “G (100 to <120%)”, the “Aortic Ring Percent Relaxation at 10 μM” value is “G (100 to <120%)” and the negative-log EC50 (pEC50) is over 5.70.
Take `N#CC1(C(=O)Nc2cnc(-c3cc(-c4ncco4)n(Cc4ccccc4F)n3)nc2N)CC1` [Compound 47, N-(4-amino-2-(1-(2-fluorobenzyl)-5-(oxazol-2-yl)-1H-pyrazol-3-yl)pyrimidin-5-yl)-1-cyanocyclopropanecarboxamide]: the Emax in experiment [2] (setting [4]) was 100 to 120%. In addition, the “HEK MEC-10” value in experiment [2] is listed as “B (0.01 to <0.1 μM)”. Further, the pEC50 in experiment [2] (read-out: HEK assay EC50) was over 4.70. Moreover, the negative-log EC50 (pEC50) in experiment [2] (setting [5]) was 6.30 to 8.00. Moreover, in the experiment with Thoracic aortic rings, the “Aortic Ring Percent Relaxation at 1 μM” value is recorded as “E (60 or <80%)”, the “Aortic Ring Percent Relaxation at 3 μM” value is listed as “F (80 to <100%)”, the “Aortic Ring Percent Relaxation at 10 μM” value is listed as “G (100 to <120%)” and the negative logarithm of the EC50 (pEC50) is over 5.70.
For orientation: pIC50 means the negative decadic logarithm of the IC50, by convention in mol/L. On to `CC(C)[N+]1(C)[C@@H]2CC[C@H]1C[C@@H](OC(=O)C(CO)c1ccccc1)C2` (some centres unmarked) [Ipratropium bromide], for which the negative logarithm of the IC50 (pIC50) in experiment [3] is 9.07.

These data come from patent US20150342954A1, “2-BENZYL, 3-(PYRIMIDIN-2-YL) SUBSTITUTED PYRAZOLES USEFUL AS SGC STIMULATORS” (IRONWOOD PHARMACEUTICALS, INC., priority 2011, published 2015).
